In patent publication US7199121B2, “Protein tyrosine phosphatase inhibitor” (Institute of Molecular and Cell Biology, priority 2000, dated 2007):

Assays:
[1] = Solubility in solvents; assay type: physicochemical
[2] = Stability in solution (HPLC analysis); assay type: physicochemical; conditions: for amount reduced after incubation: aqueous solution, 52° C., 4 h; for stability in solutions: water, MeOH, DMSO
Description: The structures of 1 and 2 are similar to the structure of a known pyroglutamyl peptidase inhibitor pyrizinostatin. Pyrizinostatin has the same two-ring system (compound 3) but with a ketone side chain. Both 1 and 2 are optically active. It is possible that 1 and 2 are enantioselectively synthesized by the microorganism starting from 3 and 5. […] Upon storage, and during the isolation and purification process, decomposition predominates. […] The formation of 3 was evidenced by HPLC analysis.

[3] = tested on: PTP; test: Bioassay for PTP inhibitory activity; assay type: biochemical; conditions: for PTP inhibitory activity after prolonged storage of solution: TFA salt solution after prolonged storage; for PTP inhibitory activity of fresh solution: TFA salt, amount of 3 below 1 mole %; for PTP inhibitory activity in bioassay: isolated material, 1 and 2 contaminated with about 6-10% of 3; for effect on in vitro activity of the PTPs tested: 1 μM, receptor and non-receptor PTPs
Procedure: HTS for inhibitory activity towards PTPα was performed in 96 well plates (Nunclon). Dephosphorylation of the substrate (pNPP) was measured in 180 μL reactions/well in assay buffer containing 50 mM sodium acetate (pH 5.5), 0.5 mg/mL BSA and 0.5 mM dithiothreitol. The purified enzyme PTPα (0.3 μg/well) and extracts (5 μL in 50% methanol) were preincubated for 5–10 min at room temperature in a volume of 170 μl. Reactions were initiated by adding 10 μL of substrate in assay buffer to a final concentration of 2 mM. For each plate, 6 reference control wells containing PTPα were preincubated with 5 μL 50% methanol at the same time as the test samples. As a positive control for PTPα inhibition, 1 μM Na3VO4, a potent inhibitor of PTPs, was added to some wells. Blank wells contained 5 μL 50% methanol, 2 mM pNPP in assay buffer and no enzyme. For each set of experiments (from 2–5 plates), reference controls in a separate plate were read at different time points to check the linearity of the reaction. Reactions were stopped with 25 μL KH2PO4 after 45–60 mins incubation at room temperature. The plates were read immediately in a multilabel counter (Wallac 1420 Victor). The OD405 of the reference wells ranged between 0.7–1.2, which represents <10% conversion of the substrate and falls within the linear part of the reaction. Percentage inhibition was determined using the formula: % Inhibition=[{(OD ref−OD blank)−(OD test−OD blank)}/(OD ref−OD blank)]×100 Phosphatase Assay: […]

[4] = tested on: Pseudomonas aeruginosa; test: Antimicrobial activity, Pseudomonas aeruginosa; assay type: cell-based; conditions: 50 μM or 100 μM
[5] = target: T1, TCPTP (Homo sapiens, UniProt P17706); test: Phosphatase assay (pNPP dephosphorylation), TCPTP; conditions: for percentage activity of TCPTP relative to control: 1 μM compound, phosphatase 1.0 nM, pNPP, average of three enzyme preparations ± S.D.
T1 sequence (P17706 1-317 limits assumed): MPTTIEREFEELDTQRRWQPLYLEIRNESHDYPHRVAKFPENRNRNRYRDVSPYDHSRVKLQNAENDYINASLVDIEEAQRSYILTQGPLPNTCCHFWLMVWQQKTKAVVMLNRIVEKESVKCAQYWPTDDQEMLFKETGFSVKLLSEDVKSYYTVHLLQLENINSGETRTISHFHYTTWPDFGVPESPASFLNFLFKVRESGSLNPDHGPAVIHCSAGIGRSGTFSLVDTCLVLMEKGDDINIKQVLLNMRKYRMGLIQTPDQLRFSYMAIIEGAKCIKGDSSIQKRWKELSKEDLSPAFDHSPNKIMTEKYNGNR

[6] = tested on: Candida albicans; test: Antimicrobial activity, Candida albicans; assay type: cell-based; conditions: 50 μM or 100 μM
[7] = target: T2, CD45 (Homo sapiens, UniProt P08575); test: Phosphatase assay (pNPP dephosphorylation), CD45; conditions: for percentage activity of CD45 relative to control: 1 μM compound, phosphatase 1.0 nM, pNPP, average of three enzyme preparations ± S.D.
T2 sequence (P08575 599-1306 limits assumed): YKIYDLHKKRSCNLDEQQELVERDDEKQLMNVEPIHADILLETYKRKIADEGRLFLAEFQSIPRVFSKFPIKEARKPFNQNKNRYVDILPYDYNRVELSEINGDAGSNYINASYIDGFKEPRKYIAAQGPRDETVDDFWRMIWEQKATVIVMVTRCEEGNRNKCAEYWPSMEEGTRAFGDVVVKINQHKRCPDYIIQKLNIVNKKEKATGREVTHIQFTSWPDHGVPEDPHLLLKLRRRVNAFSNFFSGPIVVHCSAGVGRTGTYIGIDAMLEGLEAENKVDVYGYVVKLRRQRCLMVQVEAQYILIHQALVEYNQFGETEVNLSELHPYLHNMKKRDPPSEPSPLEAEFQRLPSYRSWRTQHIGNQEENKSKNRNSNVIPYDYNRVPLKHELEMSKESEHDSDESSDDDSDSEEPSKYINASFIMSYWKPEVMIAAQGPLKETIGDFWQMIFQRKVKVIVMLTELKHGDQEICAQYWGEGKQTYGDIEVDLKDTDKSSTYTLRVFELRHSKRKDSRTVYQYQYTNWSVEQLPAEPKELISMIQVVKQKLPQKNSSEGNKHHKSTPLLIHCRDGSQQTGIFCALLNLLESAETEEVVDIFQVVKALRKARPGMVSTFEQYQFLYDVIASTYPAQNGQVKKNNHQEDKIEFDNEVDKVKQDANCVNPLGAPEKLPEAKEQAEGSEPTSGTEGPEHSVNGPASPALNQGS

[8] = tested on: CIP; test: Phosphatase assay (pNPP dephosphorylation, pH 7), CIP; conditions: for percentage activity of CIP relative to control: 1 μM compound, phosphatase 0.5 nM, pNPP, pH 7, average of three enzyme preparations ± S.D.; for effect on pNPP phosphatase activity of CIP: neutral pH
[9] = tested on: Curvualaria sp.; test: Antimicrobial activity, Curvualaria sp.; assay type: cell-based; conditions: 50 μM or 100 μM
[10] = target: εD1D2 (Homo sapiens, UniProt P23469); test: Phosphatase assay (pNPP dephosphorylation), PTPε D1D2; conditions: for percentage activity of εD1D2 relative to control: 1 μM compound, phosphatase 1.0 nM, pNPP, average of three enzyme preparations ± S.D.
Chain of εD1D2 (P23469 70-700 limits assumed): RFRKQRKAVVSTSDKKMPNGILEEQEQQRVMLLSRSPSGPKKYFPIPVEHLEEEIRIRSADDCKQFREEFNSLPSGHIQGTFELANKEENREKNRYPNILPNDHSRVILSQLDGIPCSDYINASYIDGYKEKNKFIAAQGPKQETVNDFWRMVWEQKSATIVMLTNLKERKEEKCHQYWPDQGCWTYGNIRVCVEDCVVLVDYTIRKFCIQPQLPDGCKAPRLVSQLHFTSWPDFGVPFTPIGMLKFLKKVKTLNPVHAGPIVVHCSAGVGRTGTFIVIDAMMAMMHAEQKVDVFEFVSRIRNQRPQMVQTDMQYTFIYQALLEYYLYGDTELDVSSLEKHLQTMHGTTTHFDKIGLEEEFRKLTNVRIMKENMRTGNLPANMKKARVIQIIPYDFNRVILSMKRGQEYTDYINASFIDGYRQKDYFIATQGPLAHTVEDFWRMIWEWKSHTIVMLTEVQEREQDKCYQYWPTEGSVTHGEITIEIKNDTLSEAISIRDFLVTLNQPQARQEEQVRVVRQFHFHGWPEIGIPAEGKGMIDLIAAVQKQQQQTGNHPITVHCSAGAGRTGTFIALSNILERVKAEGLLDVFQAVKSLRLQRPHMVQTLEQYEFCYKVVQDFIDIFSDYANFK

[11] = tested on: Staphylococcus aureus; test: Antimicrobial activity, Staphylococcus aureus; assay type: cell-based; conditions: 50 μM or 100 μM
[12] = target: αD1D2 (Homo sapiens, UniProt P18433); test: Phosphatase assay (pNPP dephosphorylation), PTPα D1D2; conditions: for percentage activity of αD1D2 relative to control: 1 μM compound, phosphatase 5.0 nM, pNPP, average of three enzyme preparations ± S.D.
Chain of αD1D2 (P18433 175-802): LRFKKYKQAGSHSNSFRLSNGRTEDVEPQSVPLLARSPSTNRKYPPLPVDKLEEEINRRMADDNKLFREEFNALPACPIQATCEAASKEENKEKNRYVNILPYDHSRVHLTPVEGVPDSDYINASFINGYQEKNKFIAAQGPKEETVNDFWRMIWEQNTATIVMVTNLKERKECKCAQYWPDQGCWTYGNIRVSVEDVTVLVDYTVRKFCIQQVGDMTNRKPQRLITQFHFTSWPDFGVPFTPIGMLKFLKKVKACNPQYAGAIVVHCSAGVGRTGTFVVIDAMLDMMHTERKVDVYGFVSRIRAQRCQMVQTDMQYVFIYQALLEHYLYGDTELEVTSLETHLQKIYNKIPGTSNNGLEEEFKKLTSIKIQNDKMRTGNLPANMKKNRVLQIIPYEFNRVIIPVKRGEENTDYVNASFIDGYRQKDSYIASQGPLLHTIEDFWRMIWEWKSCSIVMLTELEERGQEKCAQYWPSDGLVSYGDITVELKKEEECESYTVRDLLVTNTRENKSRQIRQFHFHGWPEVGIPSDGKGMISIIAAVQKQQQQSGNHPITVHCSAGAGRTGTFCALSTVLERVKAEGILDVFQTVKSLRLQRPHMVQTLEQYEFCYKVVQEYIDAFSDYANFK

[13] = tested on: Proteus vulgaris; test: Antimicrobial activity, Proteus vulgaris; assay type: cell-based; conditions: 50 μM or 100 μM
[14] = tested on: Mycobacterium smegmatis; test: Antimicrobial activity, Mycobacterium smegmatis; assay type: cell-based; conditions: 50 μM or 100 μM
[15] = target: T3, λPP (Escherichia phage lambda, UniProt P03772); test: Phosphatase assay (pNPP dephosphorylation), λPP; conditions: for percentage activity of λPP relative to control: 1 μM compound, phosphatase 5.0 nM, pNPP, average of three enzyme preparations ± S.D.
T3 sequence (P03772 1-221): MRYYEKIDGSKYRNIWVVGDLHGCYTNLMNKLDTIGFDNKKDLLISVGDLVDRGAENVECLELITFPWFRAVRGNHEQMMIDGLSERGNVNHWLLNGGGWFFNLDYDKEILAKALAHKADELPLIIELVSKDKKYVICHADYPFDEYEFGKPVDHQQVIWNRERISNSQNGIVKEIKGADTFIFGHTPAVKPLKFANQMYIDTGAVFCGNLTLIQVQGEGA

[16] = tested on: Escherichia coli; test: Antimicrobial activity, Escherichia coli; assay type: cell-based; conditions: 50 μM or 100 μM
[17] = target: T4, LAR-D1 (Homo sapiens, UniProt P10586); test: Phosphatase assay (pNPP dephosphorylation), LAR-D1; conditions: for percentage activity of LAR-D1 relative to control: 1 μM compound, phosphatase 5.0 nM, pNPP, average of three enzyme preparations ± S.D.
T4 sequence (P10586 1352-1607 limits assumed): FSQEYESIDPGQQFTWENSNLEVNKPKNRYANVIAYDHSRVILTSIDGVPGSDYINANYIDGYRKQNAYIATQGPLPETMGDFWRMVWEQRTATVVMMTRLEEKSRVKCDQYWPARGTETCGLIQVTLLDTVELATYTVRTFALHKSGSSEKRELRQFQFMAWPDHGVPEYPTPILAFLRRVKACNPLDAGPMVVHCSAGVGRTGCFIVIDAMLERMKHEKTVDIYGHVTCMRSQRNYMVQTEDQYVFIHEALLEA

[18] = tested on: Enterococcus faecalis; test: Antimicrobial activity, Enterococcus faecalis; assay type: cell-based; conditions: 50 μM or 100 μM

solubility in DMSO, methanol and water [1] | solubility in dichloromethane, chloroform and hexanes [1] | amount reduced after incubation [2] | stability in solutions [2] | SMILES | PTP inhibitory activity after prolonged storage of solution [3] | PTP inhibitory activity of fresh solution [3] | PTP inhibitory activity in bioassay [3] | percentage activity of TCPTP relative to control [5] | percentage activity of CD45 relative to control [7] | percentage activity of CIP relative to control [8] | effect on pNPP phosphatase activity of CIP [8] | percentage activity of εD1D2 relative to control [10] | percentage activity of αD1D2 relative to control [12] | percentage activity of λPP relative to control [15] | effect on in vitro activity of the PTPs tested [3] | percentage activity of LAR-D1 relative to control [17] | also measured
soluble | insoluble | 62% | unstable | CN1N=C2N(C)C(=O)N(C)C(=O)C2(C2NC(N)=NC2=O)NC1=O (single isomer, unassigned) [Compound 1, 4a-(2-amino-5-oxo-4,5-dihydro-3H-imidazol-4-yl)-2,4,4a,8-tetrahydro-2,6,8-trimethyl-pyrimido[5,4-e]-1,2,4-triazine-3,5,7(6H)-trione] | became active | inactive | much weaker inhibitors |  |  |  |  |  |  |  |  |  | 
soluble | insoluble | 85% | unstable | CN1N=C2N(C)C(=O)N(C)C(=O)C2(C2NC(N)=NC2=O)NC1=O (single isomer, unassigned) [Compound 2, 4a-(2-amino-5-oxo-4,5-dihydro-3H-imidazol-4-yl)-2,4,4a,8-tetrahydro-2,6,8-trimethyl-pyrimido[5,4-e]-1,2,4-triazine-3,5,7(6H)-trione] | became active | inactive | much weaker inhibitors |  |  |  |  |  |  |  |  |  | 
 |  |  |  | Cn1nc2c(nc1=O)c(=O)n(C)c(=O)n2C [Compound 3, 2,8-dihydro-2,6,8-trimethyl-pyrimido[5,4-e]-1,2,4-triazine-3,5,7(6H)-trione] |  |  | potent PTP inhibitor | 34 ± 1.0% | 15 ± 2.5% | 100 ± 1.0% | neither compound had any detectable effect | 17 ± 4.0% | 17 ± 1.1% | 48 ± 2.0% | inhibited all the PTPs tested | 17 ± 2.0% | antimicrobial activity against Pseudomonas aeruginosa [4]: no antimicrobial activity; inhibition at 1 µM ([5]; read-out: inhibition of TC-PTP): ~65%; antimicrobial activity against Candida albicans [6]: no antimicrobial activity; inhibition at 1 µM ([7]; read-out: inhibition of CD45): 83 to 85%; antimicrobial activity against Curvualaria sp. [9]: no antimicrobial activity; inhibition at 1 µM ([10]; read-out: inhibition of εD1D2): 83 to 85%; antimicrobial activity against Staphylococcus aureus [11]: no antimicrobial activity; PTP inhibition of αD1D2 at neutral pH ([12]; neutral pH, results not shown): continues to behave as a PTP inhibitor; inhibition at 1 µM ([12]; read-out: inhibition of αD1D2): 83 to 85%; antimicrobial activity against Proteus vulgaris [13]: no antimicrobial activity; antimicrobial activity against Mycobacterium smegmatis [14]: no antimicrobial activity; inhibition at 1 µM ([15]; read-out: inhibition of λPP activity): ~50%; antimicrobial activity against Escherichia coli [16]: no antimicrobial activity; inhibition at 1 µM ([17]; read-out: inhibition of LAR-D1): 83 to 85%; antimicrobial activity against Enterococcus faecalis [18]: no antimicrobial activity
 |  |  |  | Cn1nc2c(nc1=O)n(C)c(=O)n2C [Compound 4, 2,5,7-trimethyl-2,7-dihydro-5H-imidazo[4,5-e]-1,2,4-triazine-3,6-dione] |  |  |  | 99 ± 2.0% | 96 ± 1.0% | 99 ± 4.0% | neither compound had any detectable effect | 99 ± 1.0% | 98 ± 0.5% | 100 ± 6.0% | negligible effects | 97 ± 1.5% | effect on λPP activity ([15]; 1 μM): unaffected
 |  |  |  | [Na+].[Na+].[Na+].[O]=[V]([O-])([O-])[O-] [Na3VO4, sodium orthovanadate, reference compound] |  |  |  | 31 ± 5.0% | 14 ± 0.5% | 98 ± 3.0% | lack of effect | 18 ± 2.0% | 24 ± 1.5% | 49 ± 3.0% |  | 26 ± 1.0% | 
